Data published in ChEMBL document CHEMBL5344475, “Indole-containing pharmaceuticals: targets, pharmacological activities, and SAR studies” (RSC Med Chem, 2024).

Legend:
[1] = target: 5-hydroxytryptamine receptor 1B (Homo sapiens, UniProt P28222); test: Binding affinity to 5-HT1B receptor (unknown origin) assessed as inhibition constant
[2] = Terminal half life in human; assay type: ADME; conditions: read-out: beta t1/2 (converted)
[3] = Cmax in human plasma; assay type: ADME, cell-free
[4] = Plasma clearance in iv dosed C57BL/6J mouse; assay type: ADME, organism-based
[5] = Binding affinity to MT1 receptor (unknown origin) assessed as inhibition constant; set-up: species or system Homo sapiens
[6] = Apparent oral clearance in human at 1 mg, po by LC-MS/MS analysis; assay type: ADME, organism-based; conditions: in vivo
[7] = Terminal half life in human at 10 mg/kg, iv; conditions: in vivo, read-out: beta t1/2 (converted)
[8] = target: Prostaglandin G/H synthase 1 (Homo sapiens, UniProt P23219); test: Inhibition of COX1 (unknown origin)
[9] = target: T1, Prostaglandin G/H synthase 2 (Homo sapiens, UniProt P35354); test: Inhibition of COX-2 (unknown origin) using arachidonic acid as substrate preincubated for 15 mins followed by substrate addition by colorimetric assay
T1 sequence (P35354 whole entry): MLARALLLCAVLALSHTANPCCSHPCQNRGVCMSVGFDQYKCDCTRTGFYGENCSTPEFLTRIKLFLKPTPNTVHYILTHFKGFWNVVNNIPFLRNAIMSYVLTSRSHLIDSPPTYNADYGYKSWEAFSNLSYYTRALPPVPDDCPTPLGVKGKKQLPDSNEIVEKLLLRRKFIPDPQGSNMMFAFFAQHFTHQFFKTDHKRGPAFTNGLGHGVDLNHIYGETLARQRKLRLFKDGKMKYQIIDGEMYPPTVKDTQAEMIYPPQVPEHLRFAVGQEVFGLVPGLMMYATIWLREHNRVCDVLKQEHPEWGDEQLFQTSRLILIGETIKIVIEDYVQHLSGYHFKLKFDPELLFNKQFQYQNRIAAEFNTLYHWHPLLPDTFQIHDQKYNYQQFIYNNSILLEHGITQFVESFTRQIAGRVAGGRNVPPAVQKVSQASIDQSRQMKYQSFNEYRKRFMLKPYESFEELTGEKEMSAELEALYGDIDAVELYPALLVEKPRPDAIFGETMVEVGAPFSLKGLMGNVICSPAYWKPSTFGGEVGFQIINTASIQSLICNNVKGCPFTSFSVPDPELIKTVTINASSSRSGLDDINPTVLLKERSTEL

[10] = Half life of compound in PBS buffer; assay type: physicochemical
[11] = Volume of distribution in Wistar rat; assay type: ADME; conditions: in vivo
[12] = Apparent oral clearance in human
[13] = Binding affinity to 5-HT3R (unknown origin) assessed as inhibition constant; set-up: species or system Homo sapiens
[14] = Oral bioavailability in human; assay type: ADME, organism-based; conditions: in vivo
[15] = Elimination half life in human; assay type: ADME; conditions: read-out: beta t1/2 (converted)
[16] = Plasma clearance in iv dosed human
[17] = Volume of distribution at steady state in iv dosed human; conditions: in vivo, read-out: Vdss
[18] = Elimination half life in human at 7.5 to 100 mg; assay type: ADME; conditions: dose 7.5-100 mg, read-out: beta t1/2 (converted)
[19] = Oral bioavailability in mouse; assay type: ADME, organism-based; conditions: in vivo
[20] = AUC in ICR mouse; assay type: ADME; conditions: in vivo
[21] = target: D(1A) dopamine receptor (Homo sapiens, UniProt P21728); test: Binding affinity to dopamine D1 receptor (unknown origin) assessed as inhibition constant
[22] = target: Dopamine receptor; test: Inhibition of dopamine receptor (unknown origin); assay type: protein assay, Homo sapiens
[23] = Apparent oral renal clearance in human; assay type: ADME; conditions: read-out: CL(app)
[24] = Tmax in human; assay type: ADME
[25] = Half life in human; assay type: ADME
[26] = Half life in human; conditions: in vivo
[27] = target: Beta-2 adrenergic receptor (Homo sapiens, UniProt P07550); test: Binding affinity to human beta 2 adrenergic receptor assessed as inhibition constant
[28] = target: 5-hydroxytryptamine receptor 2B (Homo sapiens, UniProt P41595); test: Binding affinity to 5-HT2B receptor (unknown origin) assessed as inhibition constant
[29] = Terminal half life in iv dosed mouse; assay type: ADME, organism-based; conditions: in vivo, read-out: beta t1/2 (converted)
[30] = Volume of distribution in human; assay type: ADME
[31] = Elimination half life in rat; assay type: ADME; conditions: in vivo, read-out: beta t1/2 (converted)
[32] = Volume of distribution in human at 2.5 mg; assay type: ADME
[33] = Volume of distribution in human at 80 to 100 mg; assay type: ADME; conditions: dose 80-100 mg
[34] = Half life in human plasma; assay type: ADME, cell-free
[35] = Cmax in human at 4 mg, po; assay type: ADME; set-up: dose 4 mg, route po; conditions: in vivo
[36] = Tmax in human plasma; assay type: ADME, cell-free
[37] = AUC (0 to 24 hrs) in human at 40 mg, po by LC-MS/MS analysis; conditions: in vivo
[38] = Blood clearance in Wistar rat at 0.3 mg/kg, iv; assay type: ADME, organism-based
[39] = Plasma clearance in iv dosed human; conditions: in vivo
[40] = Volume of distribution at steady state in human; conditions: in vivo, read-out: Vdss
[41] = Initial half life in iv dosed mouse; conditions: in vivo, read-out: beta t1/2
[42] = Apparent oral clearance in human at 100 mg, po by LC-MS/MS analysis; assay type: ADME, organism-based; conditions: in vivo
[43] = target: 5-hydroxytryptamine receptor 1D (Homo sapiens, UniProt P28221); test: Binding affinity to 5-HT1DR (unknown origin) assessed as inhibition constant
Chain of 5-hydroxytryptamine receptor 1D (P28221 whole entry): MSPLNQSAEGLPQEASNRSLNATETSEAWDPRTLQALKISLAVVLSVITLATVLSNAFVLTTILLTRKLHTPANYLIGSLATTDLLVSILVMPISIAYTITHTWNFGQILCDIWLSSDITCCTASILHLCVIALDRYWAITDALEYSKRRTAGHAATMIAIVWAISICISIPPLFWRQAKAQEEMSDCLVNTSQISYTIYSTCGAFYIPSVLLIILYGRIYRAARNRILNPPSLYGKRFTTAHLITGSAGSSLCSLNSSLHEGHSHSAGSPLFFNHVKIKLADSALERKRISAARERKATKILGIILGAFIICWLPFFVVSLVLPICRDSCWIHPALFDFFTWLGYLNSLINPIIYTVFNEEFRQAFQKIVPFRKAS

Chain of 5-hydroxytryptamine receptor 2B (P41595 whole entry): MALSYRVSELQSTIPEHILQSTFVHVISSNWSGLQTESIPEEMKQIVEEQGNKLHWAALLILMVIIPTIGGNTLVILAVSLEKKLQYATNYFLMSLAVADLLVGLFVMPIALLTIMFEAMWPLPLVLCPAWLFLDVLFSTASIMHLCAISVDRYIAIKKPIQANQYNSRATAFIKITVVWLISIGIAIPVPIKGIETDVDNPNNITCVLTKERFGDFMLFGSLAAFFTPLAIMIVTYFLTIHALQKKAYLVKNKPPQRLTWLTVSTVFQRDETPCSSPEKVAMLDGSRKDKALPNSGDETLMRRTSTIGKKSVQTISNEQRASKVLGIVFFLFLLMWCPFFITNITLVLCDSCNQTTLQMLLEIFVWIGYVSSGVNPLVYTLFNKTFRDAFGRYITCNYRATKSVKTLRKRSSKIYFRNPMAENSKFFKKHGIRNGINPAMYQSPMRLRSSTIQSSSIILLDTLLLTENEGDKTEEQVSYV
Chain of 5-hydroxytryptamine receptor 1B (P28222 whole entry): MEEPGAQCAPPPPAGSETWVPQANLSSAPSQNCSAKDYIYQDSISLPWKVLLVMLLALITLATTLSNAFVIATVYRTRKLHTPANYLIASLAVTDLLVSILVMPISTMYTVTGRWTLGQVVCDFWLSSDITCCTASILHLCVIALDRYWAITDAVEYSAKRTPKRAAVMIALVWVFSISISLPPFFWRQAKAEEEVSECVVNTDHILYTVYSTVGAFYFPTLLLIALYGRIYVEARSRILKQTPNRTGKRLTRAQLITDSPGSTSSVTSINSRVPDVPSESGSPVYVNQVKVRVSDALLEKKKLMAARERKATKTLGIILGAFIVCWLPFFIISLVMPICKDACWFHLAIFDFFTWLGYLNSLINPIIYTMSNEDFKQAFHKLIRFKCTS
Chain of Prostaglandin G/H synthase 1 (P23219 whole entry): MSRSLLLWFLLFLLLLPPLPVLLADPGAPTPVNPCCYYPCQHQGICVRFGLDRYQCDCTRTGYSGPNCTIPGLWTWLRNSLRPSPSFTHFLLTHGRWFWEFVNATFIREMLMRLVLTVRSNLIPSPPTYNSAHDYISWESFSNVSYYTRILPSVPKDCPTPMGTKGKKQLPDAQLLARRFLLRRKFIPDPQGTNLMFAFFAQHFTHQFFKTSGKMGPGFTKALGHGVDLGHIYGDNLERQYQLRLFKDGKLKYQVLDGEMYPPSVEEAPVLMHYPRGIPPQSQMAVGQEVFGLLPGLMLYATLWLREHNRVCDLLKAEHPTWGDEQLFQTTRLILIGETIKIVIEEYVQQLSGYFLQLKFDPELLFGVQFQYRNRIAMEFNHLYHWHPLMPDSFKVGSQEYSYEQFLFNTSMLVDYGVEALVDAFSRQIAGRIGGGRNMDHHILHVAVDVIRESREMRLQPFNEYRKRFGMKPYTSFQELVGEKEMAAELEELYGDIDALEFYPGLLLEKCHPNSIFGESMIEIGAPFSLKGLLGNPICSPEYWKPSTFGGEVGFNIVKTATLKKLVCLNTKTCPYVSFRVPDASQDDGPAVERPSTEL
Chain of Beta-2 adrenergic receptor (P07550 whole entry): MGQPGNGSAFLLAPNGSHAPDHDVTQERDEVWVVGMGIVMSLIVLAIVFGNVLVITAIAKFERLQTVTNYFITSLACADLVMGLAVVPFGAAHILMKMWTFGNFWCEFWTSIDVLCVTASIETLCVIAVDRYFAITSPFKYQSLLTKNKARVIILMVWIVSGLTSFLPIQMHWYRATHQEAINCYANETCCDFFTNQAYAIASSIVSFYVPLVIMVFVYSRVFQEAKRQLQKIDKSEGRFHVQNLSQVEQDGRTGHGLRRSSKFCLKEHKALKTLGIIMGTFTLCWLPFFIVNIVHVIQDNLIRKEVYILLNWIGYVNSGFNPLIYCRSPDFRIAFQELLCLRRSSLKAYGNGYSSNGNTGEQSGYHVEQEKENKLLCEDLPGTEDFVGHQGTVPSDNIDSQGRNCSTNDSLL
Chain of D(1A) dopamine receptor (P21728 whole entry): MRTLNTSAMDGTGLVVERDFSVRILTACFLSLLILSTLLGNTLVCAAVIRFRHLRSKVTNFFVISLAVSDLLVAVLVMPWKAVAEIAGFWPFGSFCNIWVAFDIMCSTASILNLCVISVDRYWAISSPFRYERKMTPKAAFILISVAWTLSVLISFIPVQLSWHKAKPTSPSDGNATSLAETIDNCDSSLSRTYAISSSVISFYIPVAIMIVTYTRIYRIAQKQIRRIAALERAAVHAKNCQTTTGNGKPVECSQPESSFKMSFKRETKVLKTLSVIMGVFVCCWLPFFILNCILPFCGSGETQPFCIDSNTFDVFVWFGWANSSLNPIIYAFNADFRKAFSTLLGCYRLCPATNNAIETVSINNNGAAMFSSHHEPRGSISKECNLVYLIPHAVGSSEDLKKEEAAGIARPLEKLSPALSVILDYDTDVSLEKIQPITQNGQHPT

## CNS(=O)(=O)CCc1ccc2[nH]cc(C3CCN(C)CC3)c2c1
[1]
  Ki: 1.5 nM

## COc1ccc2[nH]c3c(c2c1)CCN[C@]31CS[C@@H]2c3c(OC(C)=O)c(C)c4c(c3[C@@H](COC1=O)N1[C@@H]2[C@H]2c3c(cc(C)c(OC)c3O)C[C@@H]([C@@H]1O)N2C)OCO4
[2]
  half-life: 51 h
[3]
  Cmax: 107000 ng/mL
[4]
  clearance: 183 mL/min

## CN1CC(=O)N2[C@H](c3ccc4c(c3)OCO4)c3[nH]c4ccccc4c3C[C@@H]2C1=O
[5]
  Ki: 1.2 nM
[6]
  CL/F: 41.7 mL/min
[7]
  half-life: 17.5 h

## COc1ccc2c(c1)c(CC(=O)OCC(=O)O)c(C)n2C(=O)c1ccc(Cl)cc1 [ACEMETACIN]
[8]
  IC50: 10 nM
[9]
  IC50: 10 nM
[10]
  half-life: 4.5 h

## CCc1cc2c(cc1N1CCC(N3CCOCC3)CC1)C(C)(C)c1[nH]c3cc(C#N)ccc3c1C2=O [ALECTINIB]
[11]
  Vd: 4020 L
[12]
  CL/F: 1370 mL/min

## Cc1[nH]cnc1CN1CCc2c(c3ccccc3n2C)C1=O [ALOSETRON]
[13]
  Ki: 0.5 nM
[14]
  bioavailability: 50%
[15]
  half-life: 1.5 h
[16]
  clearance: 600 mL/min
[17]
  Vd: 65 L

## CC(C)C[C@H]1C(=O)N2CCC[C@H]2[C@]2(O)O[C@](NC(=O)[C@@H]3C=C4c5cccc6[nH]c(Br)c(c56)C[C@H]4N(C)C3)(C(C)C)C(=O)N12 [BROMOCRIPTINE]
[18]
  half-life: 4.85 h
[19]
  bioavailability: 90%
[20]
  AUC: 2.38 ng·h/mL

## C=CCN1C[C@H](C(=O)N(CCCN(C)C)C(=O)NCC)C[C@@H]2c3cccc4[nH]cc(c34)C[C@H]21 [CABERGOLINE]
[21]
  Ki: 1.4 nM
[22]
  EC50: 13 nM
[23]
  CL renal: 80 mL/min

## CC(C(=O)O)c1ccc2c(c1)[nH]c1ccc(Cl)cc12 (stereo unspecified) [CARPROFEN]
[24]
  Tmax: 1 h
[25]
  half-life: 8 h

## COc1ccccc1OCCNCC(O)COc1cccc2[nH]c3ccccc3c12 (stereo unspecified) [CARVEDILOL]
[26]
  half-life: 7 h

## CC(C)[C@@]1(NC(=O)[C@@H]2C[C@@H]3c4cccc5[nH]cc(c45)C[C@H]3N(C)C2)O[C@@]2(O)[C@@H]3CCCN3C(=O)[C@H](Cc3ccccc3)N2C1=O [DIHYDROERGOCRISTINE]
[27]
  Ki: 2.4 nM
[26]
  half-life: 3.5 h

## CN1C[C@H](C(=O)N[C@]2(C)O[C@@]3(O)[C@@H]4CCCN4C(=O)[C@H](Cc4ccccc4)N3C2=O)C[C@@H]2c3cccc4[nH]cc(c34)C[C@H]21 [DIHYDROERGOTAMINE]
[28]
  Ki: 3.7 nM
[29]
  half-life: 9 h

## O=C(O[C@@H]1C[C@@H]2C[C@H]3C[C@H](C1)N2CC3=O)c1c[nH]c2ccccc12 [DOLASETRON]
[30]
  Vd: 5.8 L/kg

## CC(C)n1c(/C=C/C(O)CC(O)CC(=O)O)c(-c2ccc(F)cc2)c2ccccc21 (stereo unspecified) [FLUVASTATIN]
[30]
  Vd: 0.35 L/kg

## COc1ccc2c(c1)c(CC(=O)O)c(C)n2C(=O)c1ccc(Cl)cc1 [INDOMETHACIN]
[31]
  half-life: 7 h

## CCN(CC)C(=O)N[C@H]1C=C2c3cccc4[nH]cc(c34)C[C@H]2N(C)C1 [LISURIDE]
[32]
  Vd: 1.73 L/kg
[18]
  half-life: 1.8 h

## COc1ccc2[nH]cc(CCNC(C)=O)c2c1 [MELATONIN]
[15]
  half-life: 1 h
[5]
  Ki: 0.05 nM

## CC[C@@H](CO)NC(=O)[C@@H]1C=C2c3cccc4[nH]cc(c34)C[C@H]2N(C)C1 [METHYLERGONOVINE]
[14]
  bioavailability: 40%
[33]
  Vd: 2.4 L/kg
[26]
  half-life: 2.5 h

## CO[C@@H]1[C@H](N(C)C(=O)c2ccccc2)C[C@H]2O[C@]1(C)n1c3ccccc3c3c4c(c5c6ccccc6n2c5c31)C(=O)NC4 [MIDOSTAURIN]
[30]
  Vd: 95.2 L
[34]
  half-life: 21 h

## Cc1nccn1CC1CCc2c(c3ccccc3n2C)C1=O (stereo unspecified) [ONDANSETRON]
[28]
  Ki: 2.5 nM
[14]
  bioavailability: 56%
[15]
  half-life: 3.1 h

## Cc1[nH]c2ccccc2c1CCNCc1ccc(/C=C/C(=O)NO)cc1 [PANOBINOSTAT]
[34]
  half-life: 37 h
[12]
  CL/F: 2670 mL/min

## CCCN1C[C@H](CSC)C[C@@H]2c3cccc4[nH]cc(c34)C[C@H]21 [PERGOLIDE]
[19]
  bioavailability: 55%

## CC(C)NCC(O)COc1cccc2[nH]ccc12 (stereo unspecified) [PINDOLOL]
[24]
  Tmax: 1 h
[33]
  Vd: 2 L/kg
[26]
  half-life: 3 h

## O=C1NCCN1CCN1CCC(c2cn(-c3ccc(F)cc3)c3ccc(Cl)cc23)CC1 [SERTINDOLE]
[14]
  bioavailability: 75%
[33]
  Vd: 20 L/kg
[26]
  half-life: 53 h

## CCCCCNC(=N)N/N=C/c1c[nH]c2ccc(OC)cc12 [TEGASEROD]
[16]
  clearance: 1280 mL/min
[7]
  half-life: 11 h
[17]
  Vd: 368 L

## CN1[C@@H]2CC[C@H]1C[C@@H](OC(=O)c1c[nH]c3ccccc13)C2 [TROPISETRON]
[14]
  bioavailability: 60%
[34]
  half-life: 5 h

## CCOC(=O)c1c(CSc2ccccc2)n(C)c2cc(Br)c(O)c(CN(C)C)c12 [UMIFENOVIR]
[34]
  half-life: 17 h
[35]
  Cmax: 415 ng/mL
[36]
  Tmax: 0.65 h

## N#Cc1ccc2[nH]cc(CCCCN3CCN(c4ccc5oc(C(N)=O)cc5c4)CC3)c2c1 [VILAZODONE]
[2]
  half-life: 25 h
[3]
  Cmax: 156 ng/mL
[37]
  AUC: 1640 ng·h/mL

## CC[C@]1(O)C[C@@H]2CN(CCc3c([nH]c4ccccc34)[C@@](C(=O)OC)(c3cc4c(cc3OC)N(C)[C@H]3[C@@](O)(C(=O)OC)[C@H](OC(C)=O)[C@]5(CC)C=CCN6CC[C@]43[C@@H]65)C2)C1 [VINBLASTINE]
[29]
  half-life: 1.6 h

## CC[C@]12C=CCN3CC[C@@]4(c5cc([C@@]6(C(=O)OC)C[C@@H]7C[C@@H](C(C)(F)F)CN(Cc8c6[nH]c6ccccc86)C7)c(OC)cc5N(C)[C@H]4[C@@](O)(C(=O)OC)[C@@H]1OC(C)=O)[C@@H]32 [VINFLUNINE]
[38]
  clearance: 667 mL/min

## CCC1=C[C@@H]2CN(C1)Cc1c([nH]c3ccccc13)[C@@](C(=O)OC)(c1cc3c(cc1OC)N(C)[C@H]1[C@@](O)(C(=O)OC)[C@H](OC(C)=O)[C@]4(CC)C=CCN5CC[C@]31[C@@H]54)C2 [VINORELBINE]
[29]
  half-life: 24.8 h
[39]
  clearance: 16.2 mL/min/kg
[7]
  half-life: 27.7 h
[40]
  Vd: 25.4 L/kg

## COC(=O)[C@@H]1[C@H]2C[C@H]3c4[nH]c5ccccc5c4CCN3C[C@@H]2CC[C@@H]1O [YOHIMBINE]
[15]
  half-life: < 1 h
[41]
  half-life: 3.7 min

## COc1cc(C(=O)NS(=O)(=O)c2ccccc2C)ccc1Cc1cn(C)c2ccc(NC(=O)OC3CCCC3)cc12 [ZAFIRLUKAST]
[42]
  CL/F: 333 mL/min

## CN(C)CCc1c[nH]c2ccc(C[C@H]3COC(=O)N3)cc12 [ZOLMITRIPTAN]
[1]
  Ki: 0.4 nM
[43]
  Ki: 0.4 nM
